Reference: patent US20110262359A1, “COMPOSITIONS COMPRISING ENZYME-CLEAVABLE PRODRUGS OF ACTIVE AGENTS AND INHIBITORS THEREOF” (priority 2010, published 2011)
Read-outs that look alike come from different tables or passages of the source.

Assays:
[1] = Pharmacokinetics of oxycodone prodrug Compound KC-2 or oxycodone following PO administration to rats; assay type: in vivo; details: rat PO; Compound KC-2 20 mg/kg vs oxycodone 10 mg/kg
[2] = target: T1, trypsin from bovine pancreas (Bos taurus, UniProt P00760); assay: Effect of trypsin inhibition on in vitro trypsin-mediated release of oxycodone from Compound KC-2; assay type: biochemical; set-up: trypsin from bovine pancreas; purchased Sigma-Aldrich T8003; host or cells: bovine pancreas (tissue-derived); details: no trypsin inhibitor; 0.761 mM Compound KC-2, 0.0228 mg/mL trypsin, 37° C.
T1 sequence (P00760 24-246): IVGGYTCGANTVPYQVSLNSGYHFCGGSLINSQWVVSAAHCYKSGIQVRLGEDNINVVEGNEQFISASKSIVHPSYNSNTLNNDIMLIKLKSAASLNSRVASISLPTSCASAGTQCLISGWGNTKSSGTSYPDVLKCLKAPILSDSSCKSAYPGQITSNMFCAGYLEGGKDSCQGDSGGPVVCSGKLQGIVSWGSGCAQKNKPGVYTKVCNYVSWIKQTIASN

[3] = In vitro stability of Compound KC-2 to household chemicals and enzyme preparations; assay type: physicochemical; details: vodka, baking soda, WINDEX, vinegar at RT or 80° C.; GNC Super Digestive, tenderizer, subtilisn at RT; 1 or 24 hr
Description: Samples were incubated as described and aliquots removed at 1 hr and 24 hr and stabilized by adding each to a solution of 50% or 100% of 85% phosphoric acid solution to achieve a final pH of less than or equal to pH 4. The stabilized aliquots were then diluted 4- to 6-fold with water, vortex-mixed and applied to HPLC.

[4] = male, Sprague Dawley, rat, in vivo
[5] = Pharmacokinetics of Compound KC-4 following PO administration to rats; assay type: in vivo; details: rat PO; KC-4 6 mg/kg
human μ-opioid receptor = target: T2, human μ-opioid receptor (Homo sapiens, UniProt P35372); assay type: cell-based; details: EC50 at the human μ-opioid receptor, oxycodone or hydrocodone to the prodrug of that drug, same experiment
T2 construct: expressed in transfected cells; host or cells: CHO
T2 sequence (P35372 whole entry): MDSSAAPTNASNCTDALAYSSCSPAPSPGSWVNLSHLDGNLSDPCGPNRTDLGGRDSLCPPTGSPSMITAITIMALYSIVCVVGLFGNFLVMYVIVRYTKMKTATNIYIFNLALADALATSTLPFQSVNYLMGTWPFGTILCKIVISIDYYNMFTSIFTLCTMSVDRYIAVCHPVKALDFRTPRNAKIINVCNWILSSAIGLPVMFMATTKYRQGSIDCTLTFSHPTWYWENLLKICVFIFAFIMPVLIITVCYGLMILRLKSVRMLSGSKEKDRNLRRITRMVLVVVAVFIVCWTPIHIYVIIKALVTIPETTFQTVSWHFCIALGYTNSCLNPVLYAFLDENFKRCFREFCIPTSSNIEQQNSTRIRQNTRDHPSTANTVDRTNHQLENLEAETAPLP

[6] = target: T1, trypsin from bovine pancreas; assay: In vitro trypsin conversion of ketone-modified opioid prodrugs to oxycodone or hydrocodone and inhibition by Compound 109; assay type: biochemical; set-up: trypsin from bovine pancreas; purchased Sigma-Aldrich T8003; host or cells: bovine pancreas (tissue-derived); details: 0.761 mM prodrug, no inhibitor, 37° C.
[7] = Pharmacokinetics of Compound KC-4 following IV administration to rats; assay type: in vivo; details: KC-4 2 mg/kg ([…])
[8] = Oral administration of Compound KC-3 and trypsin inhibitor Compound 109 to rats; assay type: in vivo; details: rat PO; KC-3 50 mg/kg with Compound 109 10 to 40 mg/kg
[9] = Oral administration of Compound KC-4 and trypsin inhibitor Compound 109 to rats; assay type: in vivo; details: rat PO; KC-4 6 mg/kg with Compound 109 30 mg/kg
[10] = Oral administration of Compound PC-5 co-dosed with trypsin inhibitor Compound 109 to rats; assay type: in vivo; details: rat PO; PC-5 6 mg/kg with Compound 109 0.1 to 10 mg/kg
[11] = Oral administration of Compound PC-6 co-dosed with trypsin inhibitor Compound 109 to rats; assay type: in vivo; details: rat PO; PC-6 6 mg/kg with Compound 109 0.01 to 30 mg/kg
[12] = Oral administration of Compound KC-2 and trypsin inhibitor Compound 109 to rats; assay type: in vivo; details: rat PO; KC-2 6 mg/kg with Compound 109 30 mg/kg
[13] = Oral administration of Compound KC-2 co-dosed with increasing Compound 109 to rats; assay type: in vivo; details: rat PO; KC-2 50 mg/kg with Compound 109 10 to 40 mg/kg
[14] = Pharmacokinetics of Compound KC-5 following PO administration to rats; assay type: in vivo; details: rat PO
[15] = male, Sprague Dawley, rat, in vivo; remark: listed apart in the source
[16] = Pharmacokinetics of Compound KC-6 following PO administration to rats; assay type: in vivo; details: rat PO
[17] = male, Sprague Dawley, rat, in vivo

## COc1ccc2c3c1O[C@H]1C(OC(=O)N(C)CCNC(=O)[C@H](CCCNC(=N)N)NC(C)=O)=CC[C@@]4(O)[C@@H](C2)N(C)CC[C@]314 [Compound KC-2, Oxycodone 6-(N-methyl-N-(2-N′-acetylarginylamino)) ethylcarbamate]
[1]
  oxycodone plasma profile compared to administration of oxycodone: yields oxycodone plasma concentrations that exhibit a suppressed Cmax and delayed Tmax compared to administration of oxycodone
[2]
  Rate of oxycodone formation, umols/h/umol trypsin Average ± sd: 37.4 ± 0.9 umols/h/umol trypsin
[3]
  conversion of Compound KC-2 to oxycodone on exposure to household chemicals and enzyme preparations: less than 10%
[4]
  Plasma/CSF partitioning coefficient: 439

## COc1ccc2c3c1OC1C(OC(=O)N(C)CCNC(=O)[C@H](CCCNC(=N)N)NC(=O)CC(=O)O)=CCC4[C@@H](C2)N(C)CC[C@]314 (stereo partly drawn) [Compound KC-4, N—((S)-1-{2-[(Dihydrocodein-6-enyloxycarbonyl)-methylamino]-ethylcarbamoyl-4-guanidino}-butyl)-malonamic acid]
[5]
  release of hydrocodone after oral administration: leads to release of hydrocodone
Human μ-opioid receptor
  Drug/prodrug relative potency: 15
[6]; 241 BAEE U trypsin/mL
  Rate of hydrocodone formation, umol/h/BAEE U Average ± sd: 0.0911 ± 0.015 umol/h/BAEE U
[6]; 4815 BAEE U trypsin/mL
  Rate of hydrocodone formation, umol/h/BAEE U Average ± sd: 0.0137 ± 0.0014 umol/h/BAEE U
[7]
  KC-4 Cmax (rat plasma): 3960 ± 570 ng/mL

## N=C(N)c1ccc2cc(OC(=O)c3ccc(N=C(N)N)cc3)ccc2c1 [Compound 109, 6-carbamimidoylnaphthalen-2-yl 4-(diaminomethyleneamino)benzoate]
[8]
  effect of Compound 109 on release of oxycodone from Compound KC-3: attenuates Compound KC-3's ability to release oxycodone, both by suppressing Cmax and AUC and by delaying Tmax
[9]
  effect of Compound 109 on release of hydrocodone from Compound KC-4: attenuates Compound KC-4's ability to release hydrocodone, both by suppressing Cmax and AUC and by delaying Tmax
[10]
  effect of Compound 109 on release of hydromorphone from Compound PC-5: ability to attenuate Compound PC-5's ability to release hydromorphone in a dose dependent manner
[11]
  effect of Compound 109 on release of hydromorphone from Compound PC-6: ability to attenuate Compound PC-6's ability to release hydromorphone in a dose dependent manner
[12]
  effect of Compound 109 on release of oxycodone from Compound KC-2: attenuates Compound KC-2's ability to release oxycodone, both by suppressing Cmax and by delaying Tmax
[13]
  effect of Compound 109 on release of oxycodone from Compound KC-2: ability to attenuate Compound KC-2's ability to release oxycodone in a dose dependent manner

## COc1ccc2c3c1O[C@H]1C(OC(=O)N(CCCCCC(=O)O)CCNC(=O)[C@H](CCCNC(=N)N)NC(C)=O)=CC[C@@]4(O)[C@@H](C2)N(C)CC[C@]314 [Compound KC-5, 6-{[2-(2-Acetylamino-5-guanidino-pentanoylamino)-ethyl]-[(5R, 9R,13S,14S)-4,5a-epoxy-6,7-didehydro-14-hydroxy-3-methoxy-17-methylmorphinan-6-oxy]-1-enyloxycarbonyl-amino}-hexanoic acid]
Administered intravenously in equimolar amounts, 316×50
  expected fold less effective at CNS mu-opioid receptors than oxycodone: about 15,800 fold
[17]
  Compound conc. in CSF: 36.4 ng/mL
  Compound conc. in Plasma: 54,900 ng/mL
  Plasma/CSF partitioning coefficient: 1,508
Rat IV, 1,508/4.8
  relative plasma/CSF partitioning coefficient of prodrug to oxycodone (fold less CSF penetrant than oxycodone): about 316 fold
[14]
  oxycodone plasma profile compared to administration of oxycodone: yields oxycodone plasma concentrations that exhibit a suppressed Cmax and AUC and delayed Tmax compared to administration of oxycodone
[6]; 241 BAEE U trypsin/mL
  Rate of oxycodone formation, umol/h/BAEE U Average ± sd: 0.135 ± 0.005 umol/h/BAEE U

## COc1ccc2c3c1O[C@H]1C(OC(=O)N(C)C[C@H](NC(=O)[C@H](CCCNC(=N)N)NC(C)=O)C(=O)N(C)CC(=O)O)=CC[C@@]4(O)[C@@H](C2)N(C)CC[C@]314 [Compound KC-6, ({(S)-2-((S)-2-Acetylamino-5-guanidino-pentanoylamino)-3-[(oxycodone-enyloxycarbonyl)-methyl-amino]-propionyl}-methyl-amino)-acetic acid]
[15]
  Plasma/CSF partitioning coefficient: 815
[6]; 241 BAEE U trypsin/mL
  Rate of oxycodone formation, umol/h/BAEE U Average ± sd: 0.0118 ± 0.0042 umol/h/BAEE U
[6]; 4815 BAEE U trypsin/mL
  Rate of oxycodone formation, umol/h/BAEE U Average ± sd: 0.00571 ± 0.0002 umol/h/BAEE U
[16]
  oxycodone plasma profile compared to administration of oxycodone: yields oxycodone plasma concentrations that exhibit a suppressed Cmax and AUC and delayed Tmax compared to administration of oxycodone
